Test results taken from patent US20130273181A1, “METHODS AND COMPOSITIONS FOR DIAGNOSING AND TREATING MUSCLE MYOPATHY DISORDERS” (The Regents of the University of Colorado, a body Corporate, priority 2012, published 2013).

How the values were obtained:
Test in all cases: Calcium transient measurements (Fluo-3) in cultured myotubes in response to RyR1 agonist
RyR1 [1] = target: T1, RyR1 (Mus musculus, UniProt E9PZQ0); format: cell-based; settings: 4-CmC 0.5 mM, normal myotubes
T1 construct: produced substantial Ca^2+ release in both normal and Ryr1^m1Nisw/m1Nisw myotubes; endogenous in cells; host or cells: cultured myotubes from locomotor-normal mouse embryos
T1 sequence (E9PZQ0 whole entry): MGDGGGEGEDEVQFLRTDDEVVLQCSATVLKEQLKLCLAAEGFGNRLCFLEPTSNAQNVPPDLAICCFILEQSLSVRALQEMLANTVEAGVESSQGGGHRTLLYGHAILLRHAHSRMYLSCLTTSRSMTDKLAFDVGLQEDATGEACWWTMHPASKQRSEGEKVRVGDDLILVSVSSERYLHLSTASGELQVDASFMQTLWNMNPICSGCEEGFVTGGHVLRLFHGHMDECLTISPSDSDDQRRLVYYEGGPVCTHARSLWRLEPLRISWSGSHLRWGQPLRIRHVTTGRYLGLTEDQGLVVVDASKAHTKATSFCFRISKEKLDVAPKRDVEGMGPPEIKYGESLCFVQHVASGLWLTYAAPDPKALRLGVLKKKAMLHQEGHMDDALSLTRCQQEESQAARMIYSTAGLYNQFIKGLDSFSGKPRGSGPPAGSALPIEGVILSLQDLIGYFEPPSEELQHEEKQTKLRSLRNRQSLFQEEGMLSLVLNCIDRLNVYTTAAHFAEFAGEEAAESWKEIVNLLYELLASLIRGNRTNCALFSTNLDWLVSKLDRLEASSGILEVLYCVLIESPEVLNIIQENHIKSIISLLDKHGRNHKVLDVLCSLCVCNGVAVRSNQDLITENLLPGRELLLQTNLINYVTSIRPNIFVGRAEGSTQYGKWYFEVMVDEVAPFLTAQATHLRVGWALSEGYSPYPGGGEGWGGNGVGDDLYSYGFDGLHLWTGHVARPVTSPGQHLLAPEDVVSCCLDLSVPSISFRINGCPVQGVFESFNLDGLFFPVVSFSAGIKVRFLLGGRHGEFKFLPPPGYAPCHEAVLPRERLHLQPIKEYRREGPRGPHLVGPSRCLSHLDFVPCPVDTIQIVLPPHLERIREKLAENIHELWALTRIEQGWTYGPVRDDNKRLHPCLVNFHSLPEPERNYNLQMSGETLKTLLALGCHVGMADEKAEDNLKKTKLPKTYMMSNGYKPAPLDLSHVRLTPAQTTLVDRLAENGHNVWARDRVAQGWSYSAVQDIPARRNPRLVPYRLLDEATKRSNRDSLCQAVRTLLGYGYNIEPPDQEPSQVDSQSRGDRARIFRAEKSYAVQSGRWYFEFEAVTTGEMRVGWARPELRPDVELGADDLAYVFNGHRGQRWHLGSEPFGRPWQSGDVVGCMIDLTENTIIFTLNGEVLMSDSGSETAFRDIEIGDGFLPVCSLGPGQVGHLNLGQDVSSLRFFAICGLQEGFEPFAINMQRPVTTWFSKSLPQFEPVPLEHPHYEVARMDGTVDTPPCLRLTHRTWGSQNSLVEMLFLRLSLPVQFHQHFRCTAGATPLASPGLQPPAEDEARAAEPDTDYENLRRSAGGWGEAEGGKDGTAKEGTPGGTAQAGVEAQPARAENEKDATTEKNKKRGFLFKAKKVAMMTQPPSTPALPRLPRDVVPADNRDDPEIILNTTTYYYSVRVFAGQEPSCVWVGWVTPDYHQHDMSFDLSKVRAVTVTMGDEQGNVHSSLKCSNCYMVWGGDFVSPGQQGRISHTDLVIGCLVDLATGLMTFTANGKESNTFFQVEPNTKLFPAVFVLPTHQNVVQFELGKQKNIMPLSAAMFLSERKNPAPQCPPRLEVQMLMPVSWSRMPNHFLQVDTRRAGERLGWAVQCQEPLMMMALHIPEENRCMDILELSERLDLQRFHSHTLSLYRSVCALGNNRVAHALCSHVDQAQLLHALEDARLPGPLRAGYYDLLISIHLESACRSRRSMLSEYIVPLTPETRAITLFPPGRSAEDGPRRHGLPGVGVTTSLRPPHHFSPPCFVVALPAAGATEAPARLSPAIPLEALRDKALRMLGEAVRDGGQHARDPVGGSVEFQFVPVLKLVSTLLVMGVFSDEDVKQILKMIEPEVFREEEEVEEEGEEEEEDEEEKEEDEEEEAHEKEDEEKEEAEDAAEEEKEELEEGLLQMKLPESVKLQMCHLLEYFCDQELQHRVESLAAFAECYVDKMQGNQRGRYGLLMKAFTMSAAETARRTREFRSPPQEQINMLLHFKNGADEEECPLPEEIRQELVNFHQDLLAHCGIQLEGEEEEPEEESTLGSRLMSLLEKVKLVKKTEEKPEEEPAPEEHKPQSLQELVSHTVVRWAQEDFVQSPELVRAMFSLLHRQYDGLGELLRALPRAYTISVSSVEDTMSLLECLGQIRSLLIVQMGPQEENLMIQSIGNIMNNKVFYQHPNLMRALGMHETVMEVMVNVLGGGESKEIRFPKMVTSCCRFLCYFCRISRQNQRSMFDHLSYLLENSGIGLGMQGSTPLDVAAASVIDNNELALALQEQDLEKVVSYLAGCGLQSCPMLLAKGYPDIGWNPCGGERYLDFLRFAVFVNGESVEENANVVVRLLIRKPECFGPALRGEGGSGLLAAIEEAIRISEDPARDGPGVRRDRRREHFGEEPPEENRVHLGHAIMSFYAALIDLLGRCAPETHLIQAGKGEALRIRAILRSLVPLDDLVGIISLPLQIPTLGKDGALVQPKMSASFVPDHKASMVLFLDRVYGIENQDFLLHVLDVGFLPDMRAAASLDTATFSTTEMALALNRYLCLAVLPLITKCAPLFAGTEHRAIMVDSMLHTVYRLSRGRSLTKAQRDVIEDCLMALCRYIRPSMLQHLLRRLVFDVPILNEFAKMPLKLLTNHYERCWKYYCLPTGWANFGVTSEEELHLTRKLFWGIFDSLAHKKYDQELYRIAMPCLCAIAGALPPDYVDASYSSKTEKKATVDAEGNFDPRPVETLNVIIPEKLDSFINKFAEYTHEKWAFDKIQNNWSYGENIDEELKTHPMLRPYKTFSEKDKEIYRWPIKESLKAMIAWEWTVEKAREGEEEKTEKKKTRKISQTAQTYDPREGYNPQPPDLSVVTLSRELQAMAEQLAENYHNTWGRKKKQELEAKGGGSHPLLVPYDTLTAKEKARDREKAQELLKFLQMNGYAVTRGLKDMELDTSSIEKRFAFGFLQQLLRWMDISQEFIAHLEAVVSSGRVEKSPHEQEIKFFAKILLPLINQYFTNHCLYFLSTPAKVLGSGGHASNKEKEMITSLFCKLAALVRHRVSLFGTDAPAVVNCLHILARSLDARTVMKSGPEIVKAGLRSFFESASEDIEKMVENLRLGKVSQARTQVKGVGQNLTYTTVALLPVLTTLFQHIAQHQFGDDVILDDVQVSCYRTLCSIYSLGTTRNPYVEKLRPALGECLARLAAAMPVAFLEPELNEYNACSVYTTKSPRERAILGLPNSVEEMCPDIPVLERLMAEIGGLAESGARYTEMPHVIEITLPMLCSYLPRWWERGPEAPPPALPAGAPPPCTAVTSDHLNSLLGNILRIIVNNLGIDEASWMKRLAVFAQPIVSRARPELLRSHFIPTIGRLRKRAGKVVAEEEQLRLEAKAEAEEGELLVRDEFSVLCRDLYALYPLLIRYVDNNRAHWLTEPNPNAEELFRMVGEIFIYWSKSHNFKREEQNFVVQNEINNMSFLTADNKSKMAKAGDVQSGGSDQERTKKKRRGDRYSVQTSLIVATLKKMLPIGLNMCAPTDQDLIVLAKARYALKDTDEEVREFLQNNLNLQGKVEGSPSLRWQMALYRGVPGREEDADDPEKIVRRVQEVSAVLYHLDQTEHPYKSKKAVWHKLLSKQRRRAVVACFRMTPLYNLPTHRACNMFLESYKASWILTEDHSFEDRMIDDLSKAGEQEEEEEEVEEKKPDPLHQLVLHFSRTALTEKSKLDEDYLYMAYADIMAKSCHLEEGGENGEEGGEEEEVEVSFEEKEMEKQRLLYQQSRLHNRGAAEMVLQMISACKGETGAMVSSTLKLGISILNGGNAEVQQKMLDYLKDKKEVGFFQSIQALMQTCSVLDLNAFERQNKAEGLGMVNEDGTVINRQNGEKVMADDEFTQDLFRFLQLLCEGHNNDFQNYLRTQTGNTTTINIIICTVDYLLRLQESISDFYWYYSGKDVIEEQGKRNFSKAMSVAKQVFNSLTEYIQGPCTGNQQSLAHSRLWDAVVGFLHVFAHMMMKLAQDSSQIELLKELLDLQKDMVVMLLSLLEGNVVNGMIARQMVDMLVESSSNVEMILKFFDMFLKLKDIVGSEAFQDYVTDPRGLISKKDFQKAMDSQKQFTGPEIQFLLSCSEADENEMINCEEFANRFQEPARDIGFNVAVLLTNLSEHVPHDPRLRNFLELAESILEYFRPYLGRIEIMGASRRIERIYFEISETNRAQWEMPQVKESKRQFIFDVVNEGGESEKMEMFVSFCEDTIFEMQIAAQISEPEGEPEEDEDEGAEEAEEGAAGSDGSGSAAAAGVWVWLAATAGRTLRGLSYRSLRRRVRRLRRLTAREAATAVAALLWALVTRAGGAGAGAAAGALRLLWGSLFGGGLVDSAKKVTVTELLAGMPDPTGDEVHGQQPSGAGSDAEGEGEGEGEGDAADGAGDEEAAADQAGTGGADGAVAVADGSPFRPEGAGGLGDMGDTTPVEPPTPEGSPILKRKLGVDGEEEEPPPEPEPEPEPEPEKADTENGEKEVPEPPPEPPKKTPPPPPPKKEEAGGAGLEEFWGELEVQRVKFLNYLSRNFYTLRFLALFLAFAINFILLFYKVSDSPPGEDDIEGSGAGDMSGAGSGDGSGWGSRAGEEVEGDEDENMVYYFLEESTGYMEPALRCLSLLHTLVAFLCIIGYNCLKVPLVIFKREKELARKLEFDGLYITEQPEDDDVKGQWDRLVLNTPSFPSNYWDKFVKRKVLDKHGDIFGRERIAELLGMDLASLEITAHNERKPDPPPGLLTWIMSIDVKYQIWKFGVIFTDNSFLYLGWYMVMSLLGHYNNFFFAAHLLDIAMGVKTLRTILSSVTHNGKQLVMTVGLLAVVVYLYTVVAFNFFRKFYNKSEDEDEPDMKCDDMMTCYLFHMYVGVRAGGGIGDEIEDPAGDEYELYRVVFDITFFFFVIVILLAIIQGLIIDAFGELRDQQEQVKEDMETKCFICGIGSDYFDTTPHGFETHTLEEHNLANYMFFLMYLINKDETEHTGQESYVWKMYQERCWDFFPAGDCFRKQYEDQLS
Description: (§1) RyR1 functions as a muscle isotype of ryanodine receptors that is mechanically activated by Dihydropyridine receptor (hereinafter “DHPR”) to release Ca^2+ from the sarcoplasmic reticulum (hereinafter SR), thus evoking excitation-contraction coupling (hereinafter E-C coupling). In some exemplary methods, whole-cell clamping in combination with a fluorescent Ca^2+ indicator, such as Fluo-3 AM, was used to study the E-C coupling function of RyR1^m1Nisw mutant protein in cultured myotubes. […] Addition of the RyR1 agonist, 4-chloro-m-cresol (4-CmC; 0.5 mM), produced substantial Ca^2+ release in both normal and Ryr1^m1Nisw/m1Nisw myotubes (peak ΔF/F of 1.4±0.1; n=5 vs. 1.2±0.1; n=3, respectively; p>0.05; FIG. 2d, e), compared to Ryr1^tm1Alle/tm1Alle null myotubes (ΔF/F 0.1±0.0; n=6; FIG. 2e). […] However, the rate of SR Ca^2+ release in response to 4-CmC was much slower in Ryr1^m1Nisw/m1Nisw versus normal myotubes (t1/2act=6.5±2.4 vs. 2.2±0.6 s, respectively; p<0.01; FIG. 2d). […] Under controlled physiological conditions, RyR1^m1Nisw/m1Nisw protein may be non-functional compared to wild type RyR1 in skeletal muscle.
(§2) FIG. 2a provides representative recordings of myoplasmic Ca^2+ transients elicited by 50-ms depolarizations from −50 mV to the indicated test potentials for locomotor normal myotubes (left; L. Normal) and Ryr1^m1Nisw/m1Nisw myotubes (right). […] FIG. 2c represents an exemplary histogram illustrating fractions of myotubes that contracted in response to a 100 V, 10 ms electrical stimulus for normal myotubes (black bar), Ryr1^m1Nisw/m1Nisw myotubes, and Ryr1^m1Nisw/m1Nisw myotubes transfected with YFP-tagged wild type RyR1 (RyR1-YFP, grey bar). The total number of myotubes tested is indicated above each bar. The defect of contraction observed in Ryr1^m1Nisw/m1Nisw myotubes (0%) was restored to 50-60% by expression of RyR1-YFP compared to the normal myotubes (90%). […] FIG. 2e represents an exemplary histogram of half-rise time of Ca^2+ transients in response to 4-CmC observed in normal (blackzbar), Ryr1^m1Nisw/m1Nisw (grey bar) and RyR1^tm1Alle/tm1Alle (white bar) myotubes. Error bars represent±SEM. An asterisk indicates a significant difference (p=0.006; t-test). The total number of myotubes tested is indicated above each bar.
(§3) Intracellular Ca^2+ was recorded with Fluo-3 (Invitrogen) at a final concentration of 200 μM that was injected by whole cell configuration, a waiting period of >5 min was used to allow the dye to diffuse into the cell interior. The total change in fluorescence (ΔF/F) was determined from the change in peak fluorescence from initial baseline during stimulation and F was the fluorescence immediately before the test pulse minus the measured average background (non Fluo-3) fluorescence before dye entry. For normal myotubes, average values of fluorescence change (ΔF) for each test potential (V) were fitted according to: (ΔF)=(ΔF)max/{1+exp[(VF−V)/kF]}, where (ΔF)max=1093 au, VF=−1.4 mV and kF=5.5 mV. Fluorescence emission was measured by fluorometer. Ryr1 cDNA was provided by Kurt Beam and Roger Bannister assisted in these experiments.

RyR1 [2] = target: T2, RyR1 (Mus musculus, UniProt E9PZQ0, E4242G); format: cell-based; settings: 4-CmC 0.5 mM, Ryr1^m1Nisw/m1Nisw myotubes
T2 construct: produced substantial Ca^2+ release in both normal and Ryr1^m1Nisw/m1Nisw myotubes; endogenous in cells; host or cells: cultured myotubes from locomotor-normal mouse embryos
T2 sequence (E9PZQ0 whole entry E4242G): as the sequence (E9PZQ0 whole entry) above, with E4242G counted along it
Description: as §1, §2, §3

RyR1 [3] = format: cell-based, mouse; settings: 4-CmC; Ryr1^tm1Alle/tm1Alle null myotubes; n=6
Description: as §1, §2, §3

Cc1cc(O)ccc1Cl [4-CmC, 4-chloro-m-cresol]
t1/2act (rate of SR Ca^2+ release) (RyR1 [1]): 2.2 ± 0.6 s | peak ΔF/F (Ca^2+ release) (RyR1 [1]; n=5): 1.4±0.1 | t1/2act (rate of SR Ca^2+ release) (RyR1 [2]): 6.5 ± 2.4 s | peak ΔF/F (Ca^2+ release) (RyR1 [2]; n=3): 1.2±0.1 | ΔF/F (Ca^2+ release) (RyR1 [3]): 0.1±0.0
